Reference: BindingDB's records for doi:10.1016/j.bmcl.2019.05.013 (Daiichi Sankyo, 2019)

These compounds were tested against T1, Solute carrier family 2, facilitated glucose transporter member 4 (Rattus norvegicus, UniProt P19357) (assay: Induction of GLUT4 translocation in rat L6-GLUT4myc differentiated myotube cells after 20 mins by chemiluminescent method).
T1 sequence (P19357 whole entry): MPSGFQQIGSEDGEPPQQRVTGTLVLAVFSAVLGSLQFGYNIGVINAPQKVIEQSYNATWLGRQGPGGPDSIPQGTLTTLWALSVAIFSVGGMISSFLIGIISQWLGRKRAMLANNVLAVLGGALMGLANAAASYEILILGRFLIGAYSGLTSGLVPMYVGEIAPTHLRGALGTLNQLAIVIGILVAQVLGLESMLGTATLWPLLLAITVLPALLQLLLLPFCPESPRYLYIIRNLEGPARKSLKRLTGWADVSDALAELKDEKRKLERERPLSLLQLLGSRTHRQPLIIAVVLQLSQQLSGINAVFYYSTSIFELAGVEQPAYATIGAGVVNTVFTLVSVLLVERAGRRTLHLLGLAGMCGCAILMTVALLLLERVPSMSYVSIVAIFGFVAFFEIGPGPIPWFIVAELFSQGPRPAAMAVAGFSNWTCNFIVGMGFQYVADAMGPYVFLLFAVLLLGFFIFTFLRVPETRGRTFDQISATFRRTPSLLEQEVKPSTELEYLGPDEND

**Q.** How did the EC50 turn out when `COc1ccccc1-c1nnc(Nc2ccc(CC(N)=O)cc2)c2c1CCC2` was run?
**A.** The EC50 was 4700 nM.

**Q.** How did the EC50 turn out when `NC(=O)Cc1ccc(Nc2nnc(-c3ccccc3OCc3cscn3)c3sccc23)c(F)c1` was run?
**A.** Its EC50 is 110 nM.

**Q.** For `COc1ccccc1-c1nnc(Nc2ccc(CC(N)=O)cc2F)c2ccsc12`, which EC50 is on record?
**A.** Its EC50 is 650 nM.

**Q.** For `COCCOCCOc1ccccc1-c1nnc(Nc2ccc(CC(N)=O)cc2F)c2ccsc12`, which EC50 is on record?
**A.** Its EC50 is 230 nM.

**Q.** Which EC50 does the source give for `CC(C)(C)OC(=O)NCCOCCOc1ccccc1-c1nnc(Nc2ccc(CC(N)=O)cc2F)c2ccsc12` here?
**A.** Its EC50 is 24 nM.

**Q.** How did the EC50 turn out when `CC(C)(C)NC(=O)NCCOCCOc1ccccc1-c1nnc(Nc2ccc(CC(N)=O)cc2F)c2ccsc12` was run?
**A.** Its EC50 is 120 nM.

**Q.** How did the EC50 turn out when `NC(=O)Cc1ccc(Nc2nnc(-c3ccccc3OCc3ccccn3)c3sccc23)c(F)c1` was run?
**A.** The EC50 was 140 nM.

**Q.** `NC(=O)Cc1ccc(Nc2nnc(-c3ccccc3OCC3COCCO3)c3sccc23)c(F)c1` (stereo unspecified) was tested. Which EC50 did it give?
**A.** The EC50 was 76 nM.

**Q.** How did the EC50 turn out when `COCCOc1ccccc1-c1nnc(Nc2ccc(CC(N)=O)cc2F)c2ccsc12` was run?
**A.** Its EC50 is 140 nM.

**Q.** With `CC(C)(C)OC(=O)NCCCCOc1ccccc1-c1nnc(Nc2ccc(CC(N)=O)cc2F)c2ccsc12` as the compound, how does the EC50 read?
**A.** The EC50 was 47 nM.

**Q.** With `CCOC(=O)NCCCCOc1ccccc1-c1nnc(Nc2ccc(CC(N)=O)cc2F)c2ccsc12` as the compound, how does the EC50 read?
**A.** Its EC50 is 230 nM.
